Several values for one entry are separate records, joined by “and”; a condition that tells them apart may be missing. Equal entries are not always repeated.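 Exposure lasted 48 hours, with cells grown in 96-well plates and compounds tested at five concentrations. GI50 is the concentration that inhibits growth by half. TGI is the concentration that stops growth completely.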
Key:
Experiment in all cases: NCI tumour cell line growth inhibition, 48 h
A549 NSCLC = tested on: A549 NSCLC
ACHN renal = tested on: ACHN renal
EKVX NSCLC = tested on: EKVX NSCLC
HCC-2998 colon = tested on: HCC-2998 colon
HOP-92 NSCLC = tested on: HOP-92 NSCLC
OVCAR-4 ovarian = tested on: OVCAR-4 ovarian
SF-295 CNS = tested on: SF-295 CNS
SK-MEL-2 melanoma = tested on: SK-MEL-2 melanoma
SK-MEL-5 melanoma = tested on: SK-MEL-5 melanoma
SNB-19 CNS = tested on: SNB-19 CNS

Row | Structure (SMILES) | GI50 (A549 NSCLC) | TGI (A549 NSCLC) | GI50 (ACHN renal) | TGI (ACHN renal) | GI50 (EKVX NSCLC) [µM] | TGI (EKVX NSCLC) [µM] | GI50 (HCC-2998 colon) [µM] | TGI (HCC-2998 colon) | GI50 (HOP-92 NSCLC) [µM] | TGI (HOP-92 NSCLC) | TGI (OVCAR-4 ovarian) [µM] | GI50 (SF-295 CNS) | TGI (SK-MEL-2 melanoma) | GI50 (SK-MEL-5 melanoma) | TGI (SK-MEL-5 melanoma) | GI50 (SNB-19 CNS) | TGI (SNB-19 CNS) | TGI (SF-295 CNS) | GI50 (OVCAR-4 ovarian) [µM] | GI50 (SK-MEL-2 melanoma)
1 | COC(=O)c1ccc2c(c1)C(=O)c1c-2n(CCCN)c(=O)c2cc([N+](=O)[O-])ccc12 | < 0.03 µM | 0.894 µM | < 0.01 µM | 0.204 µM | 0.0811 | 0.857 | < 0.01 | 0.058 µM | 0.301 | 1.9 µM | 0.647 | < 0.01 µM | 0.519 µM | < 0.0405 µM | 0.8 µM | < 0.0205 µM | 1.87 µM |  |  | 
2 | S=C=NCc1ccccc1 |  | 17.9 µM |  | 12.7 µM |  | 28.4 |  | 23.1 µM |  | 17 µM | 13.8 |  | > 59 µM |  | 7.76 µM |  | 13.1 µM | 19.4 µM |  | 
3 | Cc1ccc(NC(=O)CC/C(CC(=O)c2ccc(F)cc2)=N\NC(=O)C(=O)NN)cc1C |  | > 100 µM |  | > 100 µM |  | > 100 |  | > 100 µM |  | > 100 µM | > 100 |  | > 100 µM |  | > 100 µM |  | > 100 µM | > 100 µM |  | 
4 | C[C@]12CCC3c4ccc(O)cc4CCC3C1Cc1ccc(O)cc12 (some centres not stated) | 13 µM | 38.4 µM | 10.4 µM | 22.3 µM | 6.24 | 18.9 | 5.44 | 18.4 µM | 12.7 | 27.9 µM | 92.7 | 12.8 µM | 26.3 µM | 4.85 µM | 16.8 µM | 10.6 µM | 22.7 µM | 34.2 µM | 15.3 | 11 µM
5 | O=C(Nc1ccccc1)NS(=O)(=O)c1ccc(N2N=C3c4ccccc4CC3C2c2ccccn2)cc1 (configuration not stated) | 29.2 µM | > 100 µM | 23.6 µM | 68.8 µM | 27.8 | > 100 | 17.3 | 33.3 µM | 74.9 | > 100 µM | > 100 | 20.6 µM | > 100 µM | 23.6 µM | 47 µM | 83.9 µM | > 100 µM | 50 µM | > 100 | 35.6 µM
6 | O=C(O)CCCSc1nc2ccccc2s1 |  | > 100 µM |  | > 100 µM |  | > 100 |  | > 100 µM |  | > 100 µM | > 100 |  | > 100 µM |  | > 100 µM |  | > 100 µM | > 100 µM |  | 
7 | CC[C@H](C)[C@H](NC(=O)Nc1ccccc1)C(=O)N(C)[C@H](C[C@@H](OC(C)=O)c1nc(C(=O)N[C@@H](Cc2ccccc2)C[C@H](C)C(=O)OC)cs1)C(C)C | 7.49 µM | > 100 µM | 8.09 µM | > 100 µM | 5.36 | > 100 | 3.48 | > 100 µM | 1.34 | 62.9 µM | > 100 | 2.76 µM | > 100 µM | 1.73 µM | 12.4 µM | 5.05 µM | > 100 µM | > 100 µM | 6.06 | 3.17 µM
8 | CO[C@H]1C[C@@H]2CC[C@@H](C)[C@@](O)(O2)C(=O)C(=O)N2CCCC[C@H]2C(=O)O[C@H]([C@H](C)C[C@@H]2CC[C@@H](OP(C)(C)=O)[C@H](OC)C2)CC(=O)[C@H](C)/C=C(\C)[C@@H](O)[C@@H](OC)C(=O)[C@H](C)C[C@H](C)/C=C/C=C/C=C/1C | < 0.01 µM | 20.7 µM | 0.411 µM | 21.5 µM | < 0.01 | 18.5 | 5.02 | 24.7 µM | 0.106 | 17.2 µM | 21.3 | < 0.01 µM | 22.4 µM |  | 18.4 µM | 7.03 µM | 23.5 µM | 15.5 µM | 0.698 | 2.31 µM
9 | CC1(C)CC(=O)c2c(ccc(C(=O)C[C@H](N)CO)c2N)O1 | 7 µM and 7.1 µM | 17.5 µM and > 33.3 µM | 4.49 µM and 0.962 µM | 17.5 µM and > 33.3 µM | > 33.3 | > 33.3 |  | 17.5 µM and 12 µM | 7.04 | 17.5 µM | > 33.3 | 5.66 µM and 3.65 µM | 17.5 µM and > 33.3 µM | 2.87 µM and 5.08 µM | 17.5 µM and > 33.3 µM | 5.07 µM and 1.41 µM | 17.5 µM and > 33.3 µM | 17.5 µM and > 33.3 µM | > 33.3 | 12.5 µM and 5.2 µM
10 | Cc1ccccc1NC(=O)C1C(=O)N(c2ccccc2C)C(=O)/C1=N\N (configuration not stated) |  | > 100 µM |  | > 100 µM |  | > 100 |  | > 100 µM |  | > 100 µM | > 100 |  | > 100 µM |  | > 100 µM |  | > 100 µM | > 100 µM |  | 
11 | COc1cc2ccnc(-c3c4ccccc4c(N)c4c(OC)c(OC)ccc34)c2cc1OC |  | 17.3 µM |  | 14 µM |  | 24.2 |  | 8.86 µM |  | 9.35 µM | 11.7 |  | 16.6 µM |  | 12.3 µM |  | 15.4 µM | 13.9 µM |  | 
12 | CN(C)C(=O)c1cc2cnc(Nc3ccc(-c4csc5c(=O)cc(N6CCNCC6)oc45)cc3)nc2n1C1CCCC1 | 1.16 µM | 3.81 µM | 1.78 µM | 5.51 µM | 1.49 | 6.53 | 0.551 | 2.03 µM | 0.517 | 16.5 µM | 5.73 | 2.1 µM | 7.14 µM | 1.18 µM | 2.51 µM | 0.551 µM | 2.62 µM | 10.7 µM | 1.34 | 2.09 µM
13 | COc1cc2ccnc3c2c(c1OC)-c1ccc(=O)ccc1-3 | 18.2 µM | 55.4 µM | 19.3 µM | 44.6 µM | 29.8 | 99 | 32.1 | > 100 µM | 14.4 | 80.4 µM | 74.7 | 23.2 µM | > 100 µM | 17.1 µM | 47.9 µM | 55.3 µM | > 100 µM | 67.8 µM | 21.7 | 52.6 µM
14 | ICCC(c1ccccc1)(c1ccccc1)c1ccccc1 | 5.92 µM | 19.6 µM | 12 µM | 24.8 µM | 6.96 | 23.2 | 8.41 | 27.6 µM | 2.7 | 18.2 µM | 30.8 | 2.02 µM | 13.7 µM | 3.23 µM | 11.2 µM | 14.4 µM | 31.1 µM | 5.07 µM | 11.6 | 4.18 µM
15 | COc1ccc2c(c1)sc1nc(-c3ccccc3)c(-c3ccc(O)c(OC)c3)n12 | 9.91 µM | > 100 µM | 38.9 µM | > 100 µM | 74.7 | > 100 | > 100 | > 100 µM | 28 | > 100 µM | > 100 | 8 µM | > 100 µM | 3.64 µM | > 100 µM | 32.5 µM | > 100 µM | > 100 µM | 39.1 | 21.3 µM
16 | C[C@H]1[C@H](C)CC[C@]2(C(=O)O)CC[C@]3(C)C(=CC[C@@H]4[C@@]5(C)CC[C@H](OC(=O)/C=C/c6ccc(O)cc6)C(C)(C)[C@@H]5CC[C@]43C)[C@H]12 | 2.37 µM | 12.7 µM | 5.05 µM | 9.12 µM | 3.88 | 18.6 | 7.37 | 21.9 µM | 16.6 | 37.2 µM | 38.1 | 2.27 µM | 50.1 µM | 4.91 µM | 14.9 µM | 2.44 µM | 22.9 µM | 7.04 µM | 9.42 | 13.5 µM
17 | O=C(OCC1OC(OC(=O)c2cc(O)c(O)c(OC(=O)c3cc(O)c(O)c(O)c3)c2)C(OC(=O)c2cc(O)c(O)c(OC(=O)c3cc(O)c(O)c(O)c3)c2)C(OC(=O)c2cc(O)c(O)c(OC(=O)c3cc(O)c(O)c(O)c3)c2)C1OC(=O)c1cc(O)c(O)c(OC(=O)c2cc(O)c(O)c(O)c2)c1)c1cc(O)c(O)c(OC(=O)c2cc(O)c(O)c(O)c2)c1 (configuration not stated) | 20.7 µM | > 50 µM | 12.3 µM | 32.8 µM | 13.5 | > 50 | 11.2 | 46 µM | 43.9 | > 50 µM | > 50 | 8.65 µM | > 50 µM | 10 µM | 27.9 µM | 24.7 µM | > 50 µM | 22.9 µM | 35.2 | 20.6 µM
18 | CCOC(=O)N1N=NC2C3OC(C[C@@]3(C#N)OC(C)=O)[C@H]21 (some centres not stated) |  | > 100 µM |  | > 100 µM |  | > 100 |  | > 100 µM |  | > 100 µM | > 100 |  | > 100 µM |  | > 100 µM |  | > 100 µM | > 100 µM |  | 
19 | Nc1nc(N)c2c(ccc3nccc32)[nH]1 | 0.755 µM | > 100 µM | 4.24 µM | 36 µM | 2.22 | > 100 | 9.79 | > 91 µM | 4.18 | 30.6 µM | 66.6 | 1.95 µM | 37.1 µM | 2.28 µM | > 33.9 µM | 7.98 µM | > 100 µM | > 91.3 µM | 21.5 | 10.1 µM
20 | CCOC(=O)c1ccc(Nc2sc(C(=O)c3cccc([N+](=O)[O-])c3)c(N)c2C#N)cc1 | 0.23 µM |  | 0.0976 µM | > 44.2 µM | 0.469 | > 75.8 | 2.78 | > 100 µM | 0.109 | 28.1 µM | 57.1 | 0.0228 µM | 24.4 µM | 0.156 µM | 12.2 µM | 0.338 µM | 18.6 µM | 0.102 µM | 0.612 | 0.403 µM
21 | C/C(=N\NC(=O)c1ccccc1O)c1cccc(/C(C)=N/NC(=O)c2ccccc2O)n1 | > 70.8 µM | > 100 µM | 0.668 µM | 50.5 µM and > 62.9 µM | 0.317 | > 100 | 0.489 | 11.5 µM and > 58.9 µM | 0.908 | 67.3 µM and 36.8 µM | > 100 | 0.33 µM | 38.9 µM and > 100 µM | 0.621 µM | 44.9 µM and > 48 µM |  | 74.2 µM and > 100 µM | 59.1 µM and > 36.1 µM | 15.9 | 
